This is an account of results in ChEMBL document CHEMBL1201862, “PubChem BioAssay data set” (2004).

Among the test systems are SW-620; CAKI-1; MOLT-4; MDA-MB-231; SN12C; U-251; LOX IMVI; HCT-116; CCRF-CEM; EKVX; 786-0; ACHN; SNB-75; PC-3; NCI-H23; NCI-H460; Hs-578T; A498; OVCAR-5; SR.
Holding throughout (test): NCI anticancer screen, dose series, 48 h

Structures are written as SMILES.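 In this assay, cells in 96-well plates receive the compound at five concentrations for 48 hours. Endpoints are linearly interpolated between the surrounding concentrations. GI50 is the concentration that inhibits growth by half.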 The source made the active and inactive calls. Cut-off read from the data, not from the text of the source: active = GI50 up to about 1.1 µM and inactive = higher.

Consider `Cc1nc(C(N)=S)sc1C(/C=C/c1ccc(Cl)c(Cl)c1)=N/NC(C)(C)C`, for which the GI50 in the assay on SW-620 was > 100 µM (inactive); in the assay on CAKI-1, > 100 µM (inactive); in the assay on MOLT-4, 22.3 µM (inactive); in the assay on MDA-MB-231, > 100 µM (inactive); with SN12C it was > 100 µM (inactive); with U-251 it was > 100 µM (inactive). For the same compound, the GI50 with LOX IMVI was > 100 µM (inactive); with HCT-116, > 100 µM (inactive); in the assay on CCRF-CEM it was 32.8 µM (inactive); in the assay with EKVX, > 100 µM (inactive); in the assay with 786-0, > 100 µM (inactive); in the assay with ACHN, > 100 µM (inactive). Also, the GI50 in the assay on SNB-75, in the assay with PC-3, with NCI-H23, in the assay with NCI-H460 and in the assay with Hs-578T was > 100 µM (inactive) throughout.
`COc1cc2c(c(OC)c1OC)C(=O)CC2N` (centres undefined): the GI50 with SW-620, in the assay on CAKI-1, in the assay with MOLT-4, in the assay with MDA-MB-231, with U-251 and in the assay on LOX IMVI was > 100 µM (inactive) each time. The GI50 in the assay with HCT-116, in the assay with A498, in the assay with CCRF-CEM, with EKVX, with 786-0 and in the assay on OVCAR-5 was > 100 µM (inactive) each time. Also, the GI50 in the assay on ACHN, in the assay with SNB-75, with PC-3, in the assay on NCI-H23, in the assay with NCI-H460 and in the assay on Hs-578T was > 100 µM (inactive) in each case.
Consider `CC(=O)CC1(C)OC(N)=C(C#N)C1(C#N)C#N` (centres undefined), for which the GI50 in the assay with SW-620 was > 100 µM (inactive); in the assay with CAKI-1, 59.4 µM (inactive); in the assay on MDA-MB-231, > 100 µM (inactive); in the assay with SN12C, > 100 µM (inactive); with U-251 it was > 100 µM (inactive); in the assay on LOX IMVI it was 81.1 µM (inactive). The GI50 was 71.6 µM (inactive) in the assay with HCT-116; > 100 µM (inactive) in the assay with A498; 44.7 µM (inactive) in the assay with CCRF-CEM; > 100 µM (inactive) in the assay with EKVX; > 100 µM (inactive) in the assay with 786-0; > 100 µM (inactive) with OVCAR-5. Further, the GI50 is > 100 µM (inactive) in the assay with ACHN; 47 µM (inactive) with SNB-75; > 100 µM (inactive) with PC-3; > 100 µM (inactive) in the assay on NCI-H23; > 100 µM (inactive) with Hs-578T.
On to `CC1=NN(c2nc(N)nc(NS(=O)(=O)c3cc(C)c(Cl)cc3S)n2)C(C)(C)C1`, for which the GI50 in the assay with SW-620, in the assay with CAKI-1, with MOLT-4, in the assay with SN12C, with U-251 and in the assay on LOX IMVI was > 10 µM (inactive) throughout. Also, the GI50 in the assay on HCT-116, with A498, in the assay with CCRF-CEM, in the assay on EKVX, with 786-0 and in the assay on OVCAR-5 was > 10 µM (inactive) throughout. For the same compound, the GI50 with ACHN, in the assay with SNB-75, with SR, in the assay with PC-3, in the assay on NCI-H23 and in the assay with NCI-H460 was > 10 µM (inactive) throughout. Moreover, the GI50 with Hs-578T is > 10 µM (inactive).
On to `CCCCCC(/C=C/[C@@H]1[C@@H](C(O)CCCCCC(=O)OC)C(=O)C[C@H]1O[Si](C)(C)C(C)(C)C)OCOCCOC` (some centres undefined), for which the GI50 was 5.12 µM (inactive) in the assay with SW-620; 17.2 µM (inactive) in the assay on CAKI-1; 1.73 µM (inactive) with MOLT-4; 21.7 µM (inactive) with MDA-MB-231; 19.7 µM (inactive) in the assay on SN12C; 7.26 µM (inactive) with U-251. In addition, the GI50 is 3.54 µM (inactive) in the assay with LOX IMVI; 4.37 µM (inactive) in the assay on HCT-116; 20 µM (inactive) with A498; 2.62 µM (inactive) in the assay with CCRF-CEM; 18.8 µM (inactive) with EKVX; 15.6 µM (inactive) in the assay on 786-0. The GI50 was 21.1 µM (inactive) with OVCAR-5; 15.3 µM (inactive) in the assay with ACHN; 10.4 µM (inactive) with SNB-75; 13.8 µM (inactive) in the assay on PC-3; 15 µM (inactive) in the assay with NCI-H23; 29.7 µM (inactive) with NCI-H460. Besides, in the assay on Hs-578T, the GI50 was 9.84 µM (inactive).
For `COC(=O)C(CC12CC3CC(CC(C3)C1)C2)NC(=O)C(N)CC(=O)O` (centres undefined), the GI50 with SW-620, in the assay with CAKI-1, in the assay with MOLT-4, in the assay on SN12C, in the assay on U-251 and with HCT-116 was > 100 µM (inactive) each time. Further, the GI50 in the assay on CCRF-CEM, in the assay with EKVX, in the assay on 786-0, in the assay on OVCAR-5, in the assay on ACHN and in the assay on SNB-75 was > 100 µM (inactive) each time. The GI50 in the assay on SR, in the assay on PC-3, with NCI-H23, with NCI-H460 and in the assay with Hs-578T was > 100 µM (inactive) throughout.
As for `O=C1CC(Cl)c2c(Cl)sc(Cl)c21` (centres undefined), the GI50 in the assay with SW-620 was 1.75 µM (inactive); in the assay on CAKI-1, 1.76 µM (inactive); with MOLT-4, 1.23 µM (inactive); in the assay with SN12C, 1.84 µM (inactive); in the assay with LOX IMVI, 1.66 µM (inactive); in the assay with HCT-116, 1.69 µM (inactive). Besides, the GI50 in the assay on A498 was 12.2 µM (inactive); with CCRF-CEM, 0.255 µM (active); in the assay on EKVX, 3.94 µM (inactive); in the assay on 786-0, 1.47 µM (inactive); in the assay with OVCAR-5 it was 16.2 µM (inactive); in the assay on ACHN it was 1.95 µM (inactive). In addition, the GI50 was 4.56 µM (inactive) in the assay on SNB-75; 1.41 µM (inactive) in the assay with SR; 2.2 µM (inactive) in the assay with PC-3; 2.88 µM (inactive) with NCI-H23; 13.8 µM (inactive) in the assay with NCI-H460; 7.38 µM (inactive) in the assay with Hs-578T.
Regarding `Cc1cc(C)nc(SCC(=O)OC2CC(C)CCC2C(C)C)n1` (centres undefined), the GI50 with SW-620 is 19.9 µM (inactive); with CAKI-1 it was 20.3 µM (inactive); in the assay on MOLT-4, 16.7 µM (inactive); in the assay with MDA-MB-231, 17.9 µM (inactive); in the assay with SN12C, 19.1 µM (inactive); in the assay on U-251 it was 22.5 µM (inactive). The GI50 was 20 µM (inactive) in the assay on LOX IMVI; 19.2 µM (inactive) with HCT-116; 18.1 µM (inactive) in the assay with A498; 16.6 µM (inactive) in the assay on CCRF-CEM; 17.9 µM (inactive) in the assay with EKVX; 21.6 µM (inactive) in the assay with 786-0. Further, the GI50 in the assay on OVCAR-5 was 22.3 µM (inactive); with ACHN, 18.7 µM (inactive); with SNB-75, 21 µM (inactive); in the assay on PC-3, 28.3 µM (inactive); in the assay with NCI-H23, 24.8 µM (inactive); in the assay with NCI-H460, 18.8 µM (inactive). Besides, in the assay with Hs-578T, the GI50 was 33.4 µM (inactive).
For the compound `COC1=CC2C(c3cc4ccccc4n3S(=O)(=O)c3ccccc3)CC1CN2C(=O)OCc1ccccc1` (centres undefined), the GI50 was 37.6 µM (inactive) in the assay with SW-620; 35.2 µM (inactive) in the assay on CAKI-1; 20 µM (inactive) with MDA-MB-231; 32 µM (inactive) with SN12C; 37.3 µM (inactive) in the assay with U-251; 24.8 µM (inactive) with LOX IMVI. Also, the GI50 is 28.2 µM (inactive) in the assay with HCT-116; 29.4 µM (inactive) in the assay with CCRF-CEM; 18.9 µM (inactive) in the assay on EKVX; 33.9 µM (inactive) with 786-0; 18.2 µM (inactive) in the assay on OVCAR-5; 28.6 µM (inactive) in the assay with ACHN. For the same compound, the GI50 in the assay with SNB-75 is 1.6 µM (inactive); with PC-3 it was 29.3 µM (inactive); in the assay with NCI-H23 it was 29.7 µM (inactive); in the assay with NCI-H460 it was 29.5 µM (inactive); in the assay with Hs-578T, 23.8 µM (inactive).
`Cc1cc(O)c(C(C)C)cc1CN1CCCCC1`: the GI50 in the assay on SW-620, in the assay on CAKI-1, in the assay on MOLT-4, in the assay with MDA-MB-231, in the assay with SN12C and with U-251 was > 100 µM (inactive) throughout. Also, the GI50 with LOX IMVI, in the assay on HCT-116, with A498, in the assay on CCRF-CEM, in the assay with EKVX and in the assay with 786-0 was > 100 µM (inactive) in each case. Moreover, the GI50 in the assay on OVCAR-5, in the assay with ACHN, in the assay with SNB-75, in the assay with PC-3, in the assay on NCI-H23 and in the assay on NCI-H460 was > 100 µM (inactive) in each case. For the same compound, the GI50 in the assay with Hs-578T was > 100 µM (inactive).
On to `O=C(NCCN1CCOCC1)c1ccc2cc(C(=O)N3CC(CCl)c4ccc([N+](=O)[O-])cc43)[nH]c2c1` (centres undefined), for which the GI50 with SW-620 was 20.1 µM (inactive); with CAKI-1, 24.2 µM (inactive); with MOLT-4 it was 6.52 µM (inactive); with MDA-MB-231, 15.5 µM (inactive); with SN12C, 19.2 µM (inactive); in the assay on U-251, 9.66 µM (inactive). Also, the GI50 was 2.63 µM (inactive) in the assay with LOX IMVI; 13.5 µM (inactive) in the assay with HCT-116; 7.03 µM (inactive) in the assay with A498; 7.82 µM (inactive) in the assay with CCRF-CEM; 16.6 µM (inactive) in the assay with EKVX; 4.41 µM (inactive) in the assay on 786-0. Further, the GI50 was > 100 µM (inactive) in the assay on OVCAR-5; 12.4 µM (inactive) in the assay with ACHN; 6.7 µM (inactive) in the assay on SNB-75; 15 µM (inactive) in the assay on PC-3; 43.6 µM (inactive) with NCI-H23; 11.4 µM (inactive) in the assay on NCI-H460. Besides, in the assay on Hs-578T, the GI50 was 4.83 µM (inactive).
